In patent US8871753B2, “Macrocyclic compounds and their use as kinase inhibitors” (Incyte Corporation, priority 2008, dated 2014):
Where a name gives a salt, the structure may show the parent alone. Read-outs that look alike come from different tables or passages of the source. Each block holds one compound with its values, some of them ahead of it.

Legend:
Format in all cases: biochemical
[1] = target: T1, human JAK1 (a.a. 837-1142) (Homo sapiens, UniProt P23458); assay: In vitro JAK kinase assay (HTRF, phosphorylation of a biotinylated peptide), JAK1; conditions: read-out: JAK1 IC50
T1 construct: human JAK1 (a.a. 837-1142); His tag (N); made in house; host or cells: insect cells (baculovirus)
Outline: (§1)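 Phosphorylation of a biotinylated peptide by the JAK kinase domain, detected by HTRF with Eu-Py20 and SA-APC. ATP was 90 μM for JAK1, 30 μM for JAK2 and 3 μM for JAK3. Reactions ran 1 h at room temperature and were stopped with EDTA, followed by 40 min antibody binding.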

[2] = target: T2, human JAK2 (a.a. 828-1132) (Homo sapiens, UniProt O60674); assay: In vitro JAK kinase assay (HTRF, phosphorylation of a biotinylated peptide), JAK2
T2 construct: JAK2 (a.a. 828-1132); His tag (N); made in house; host or cells: insect cells (baculovirus)
Outline: as §1

[3] = target: TYK2 (Homo sapiens, UniProt P29597); assay: TYK2 kinase inhibition (Table A1)
[4] = target: T3, Recombinant Human Anaplastic Lymphoma Kinase (Homo sapiens, UniProt Q9UM73); assay: ALK HTRF kinase assay
T3 construct: purchased Invitrogen, Carlsbad, Calif
Text: Materials: Recombinant Human Anaplastic Lymphoma Kinase was purchased from Invitrogen, Carlsbad, Calif. Peptide substrate (Biotin-[…]-amide) was custom synthesized at EZBiolab, Westfield, Ind. Streptavidin conjugated SureLight-Allophycocyania and LANCE Eu-W1024 labeled anti-phosphotyrosine antibody were from Perkin-Elmer, Boston, Mass. Microplates were from Corning Inc., Acton, Mass. All other reagents were from Sigma, St. Louis, Mo.
Plates were read in Fusion α-FP instrument (Perkin-Elmer). […] Signal=Bottom+(Top−Bottom)/(1+10^((Log(IC50)−Log [I])*Hill Slope) Bottom and Top refer to the post and pre-transition baselines, respectively.

[5] = target: T4, human JAK3 (a.a. 781-1124) (Homo sapiens, UniProt P52333); assay: In vitro JAK kinase assay (HTRF, phosphorylation of a biotinylated peptide), JAK3
T4 construct: JAK3 (a.a. 781-1124); His tag (N); made in house; host or cells: insect cells (baculovirus)
Outline: as §1

[6] = Table B1, cells without percent sign
[7] = compound at a concentration of 500 nM or 1 mM (not specified), cells shown as percentage
[8] = method AA1 (30 μM ATP) or AA2 (1000 μM ATP), not stated per value
[9] = method AA1 (3 μM ATP) or AA2 (1000 μM ATP), not stated per value
[10] = compound at 500 nM or 1 mM, 90 μM ATP
[11] = method AA1 (90 μM ATP) or AA2 (1000 μM ATP), not stated per value

T2 sequence (O60674 828-1132): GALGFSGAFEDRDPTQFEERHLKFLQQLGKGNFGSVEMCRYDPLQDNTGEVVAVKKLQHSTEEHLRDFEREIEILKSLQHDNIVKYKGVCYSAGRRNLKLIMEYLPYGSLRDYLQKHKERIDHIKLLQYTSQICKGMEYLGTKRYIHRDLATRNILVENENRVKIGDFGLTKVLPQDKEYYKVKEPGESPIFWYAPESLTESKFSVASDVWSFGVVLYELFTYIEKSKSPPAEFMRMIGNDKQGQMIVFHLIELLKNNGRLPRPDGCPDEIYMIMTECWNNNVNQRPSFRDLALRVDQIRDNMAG
TYK2, sequence (P29597 whole entry): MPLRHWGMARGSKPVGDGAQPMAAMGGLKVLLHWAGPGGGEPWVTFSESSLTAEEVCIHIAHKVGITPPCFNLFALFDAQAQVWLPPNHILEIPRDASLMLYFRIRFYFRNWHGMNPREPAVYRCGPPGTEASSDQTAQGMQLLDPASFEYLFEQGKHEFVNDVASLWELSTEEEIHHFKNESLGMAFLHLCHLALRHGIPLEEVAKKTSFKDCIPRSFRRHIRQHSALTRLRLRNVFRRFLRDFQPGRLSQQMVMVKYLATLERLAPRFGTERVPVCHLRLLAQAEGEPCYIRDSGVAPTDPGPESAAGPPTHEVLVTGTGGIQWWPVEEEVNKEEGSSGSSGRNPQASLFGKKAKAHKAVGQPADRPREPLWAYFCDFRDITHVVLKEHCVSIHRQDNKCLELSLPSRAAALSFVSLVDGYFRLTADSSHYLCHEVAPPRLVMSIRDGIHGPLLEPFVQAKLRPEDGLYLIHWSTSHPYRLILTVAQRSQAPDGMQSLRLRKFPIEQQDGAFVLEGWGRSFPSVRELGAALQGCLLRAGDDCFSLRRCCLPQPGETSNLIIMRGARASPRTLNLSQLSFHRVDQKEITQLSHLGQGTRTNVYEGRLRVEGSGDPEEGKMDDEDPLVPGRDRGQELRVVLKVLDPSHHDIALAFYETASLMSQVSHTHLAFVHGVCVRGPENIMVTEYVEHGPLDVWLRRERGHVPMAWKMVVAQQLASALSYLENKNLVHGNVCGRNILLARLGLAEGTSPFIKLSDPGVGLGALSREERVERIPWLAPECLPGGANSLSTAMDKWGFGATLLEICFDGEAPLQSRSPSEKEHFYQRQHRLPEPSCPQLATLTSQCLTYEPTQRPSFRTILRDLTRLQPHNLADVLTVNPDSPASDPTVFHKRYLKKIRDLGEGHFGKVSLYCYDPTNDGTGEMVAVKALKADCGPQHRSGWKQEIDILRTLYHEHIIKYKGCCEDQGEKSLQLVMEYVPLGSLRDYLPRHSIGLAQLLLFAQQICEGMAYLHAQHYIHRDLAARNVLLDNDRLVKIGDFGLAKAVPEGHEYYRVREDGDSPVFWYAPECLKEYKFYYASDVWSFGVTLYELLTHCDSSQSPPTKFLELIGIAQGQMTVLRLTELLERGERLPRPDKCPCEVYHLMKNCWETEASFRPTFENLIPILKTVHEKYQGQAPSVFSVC
T1 sequence (P23458 849-1154): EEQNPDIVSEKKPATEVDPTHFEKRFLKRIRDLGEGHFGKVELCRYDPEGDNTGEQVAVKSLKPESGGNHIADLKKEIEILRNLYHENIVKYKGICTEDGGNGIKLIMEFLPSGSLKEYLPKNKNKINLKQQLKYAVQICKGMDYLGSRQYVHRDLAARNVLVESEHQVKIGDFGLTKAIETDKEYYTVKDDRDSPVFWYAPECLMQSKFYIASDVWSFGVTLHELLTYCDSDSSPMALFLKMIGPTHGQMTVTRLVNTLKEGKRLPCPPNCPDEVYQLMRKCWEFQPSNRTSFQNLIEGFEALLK
T3 sequence (Q9UM73 19-1620): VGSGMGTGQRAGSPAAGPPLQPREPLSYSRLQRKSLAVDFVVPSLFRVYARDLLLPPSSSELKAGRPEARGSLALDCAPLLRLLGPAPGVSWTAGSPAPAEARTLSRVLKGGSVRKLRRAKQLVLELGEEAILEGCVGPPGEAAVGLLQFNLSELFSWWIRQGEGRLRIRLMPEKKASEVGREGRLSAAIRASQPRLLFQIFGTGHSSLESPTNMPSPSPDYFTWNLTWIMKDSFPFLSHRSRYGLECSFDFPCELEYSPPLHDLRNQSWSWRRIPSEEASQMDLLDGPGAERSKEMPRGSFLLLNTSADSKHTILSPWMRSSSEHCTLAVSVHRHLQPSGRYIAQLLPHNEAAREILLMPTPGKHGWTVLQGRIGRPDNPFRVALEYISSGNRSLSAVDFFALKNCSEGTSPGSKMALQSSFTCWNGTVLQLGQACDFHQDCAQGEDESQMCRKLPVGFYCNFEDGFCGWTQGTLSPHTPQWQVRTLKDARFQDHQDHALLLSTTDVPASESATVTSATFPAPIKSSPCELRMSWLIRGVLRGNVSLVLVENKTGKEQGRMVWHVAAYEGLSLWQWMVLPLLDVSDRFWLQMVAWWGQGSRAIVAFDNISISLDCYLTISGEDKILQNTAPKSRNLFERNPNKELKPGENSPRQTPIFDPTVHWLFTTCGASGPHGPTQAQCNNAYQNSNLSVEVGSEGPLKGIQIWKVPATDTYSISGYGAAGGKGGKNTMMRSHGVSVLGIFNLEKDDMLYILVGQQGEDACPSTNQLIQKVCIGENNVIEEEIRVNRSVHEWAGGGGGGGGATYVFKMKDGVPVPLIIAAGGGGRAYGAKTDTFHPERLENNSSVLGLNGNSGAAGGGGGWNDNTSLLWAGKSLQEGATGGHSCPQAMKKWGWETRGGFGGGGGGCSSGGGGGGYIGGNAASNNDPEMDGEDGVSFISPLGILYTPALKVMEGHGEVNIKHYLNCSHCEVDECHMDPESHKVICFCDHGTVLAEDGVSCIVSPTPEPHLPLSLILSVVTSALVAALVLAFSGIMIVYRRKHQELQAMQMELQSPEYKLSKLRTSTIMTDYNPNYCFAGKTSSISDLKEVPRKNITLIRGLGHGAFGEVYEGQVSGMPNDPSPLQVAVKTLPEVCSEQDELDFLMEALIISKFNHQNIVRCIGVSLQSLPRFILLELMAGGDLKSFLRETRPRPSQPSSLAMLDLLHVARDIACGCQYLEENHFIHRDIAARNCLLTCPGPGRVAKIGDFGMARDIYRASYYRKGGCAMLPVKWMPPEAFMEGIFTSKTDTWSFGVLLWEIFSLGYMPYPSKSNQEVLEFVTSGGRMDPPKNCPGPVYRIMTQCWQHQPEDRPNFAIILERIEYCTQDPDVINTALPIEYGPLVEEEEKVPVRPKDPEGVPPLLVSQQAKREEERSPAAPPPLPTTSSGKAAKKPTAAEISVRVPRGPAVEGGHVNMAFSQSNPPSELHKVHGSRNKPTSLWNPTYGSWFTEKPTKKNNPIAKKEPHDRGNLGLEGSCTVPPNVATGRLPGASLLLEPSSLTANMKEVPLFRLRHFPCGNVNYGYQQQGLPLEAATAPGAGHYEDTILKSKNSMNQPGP
T4 sequence (P52333 781-1124): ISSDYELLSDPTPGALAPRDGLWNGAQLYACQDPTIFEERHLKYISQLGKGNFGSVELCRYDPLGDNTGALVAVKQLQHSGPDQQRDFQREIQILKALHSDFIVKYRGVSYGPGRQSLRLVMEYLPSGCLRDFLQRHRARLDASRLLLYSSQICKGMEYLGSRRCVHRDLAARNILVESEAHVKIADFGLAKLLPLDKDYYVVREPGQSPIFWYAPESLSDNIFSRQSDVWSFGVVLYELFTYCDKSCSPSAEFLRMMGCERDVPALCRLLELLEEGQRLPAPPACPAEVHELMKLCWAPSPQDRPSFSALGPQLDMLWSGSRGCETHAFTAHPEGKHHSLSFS

SMILES: Clc1cnc2nc1Nc1cc(cc(CN3CCN(Cc4ccc(Oc5ncccn5)cc4)CC3)c1)CCc1cccc(c1)N2 [Example B193, 6-Chloro-11-({4-[4-(pyrimidin-2-yloxy)benzyl]piperazin-1-yl}methyl)-2,4,8,22-tetraazatetracyclo[14.3.1.1(3,7).1(9,13)]docosa-1(20),3(22),4,6,9(21),10,12,16,18-nonaene tris(trifluoroacetate)]
- IC50 ([1]; Table B1): 55 nM
- IC50 ([2]; Table B1): 47 nM
- IC50 ([3]; Table B1): 950 nM
- IC50 [4, 6]: > 1000 nM

SMILES: Cc1oncc1C(=O)N1CC[C@H](NC(=O)Nc2ccc3cc2CCc2cncc(c2)Nc2ncc(Cl)c(n2)N3)C1 [Example B266, N-[6-Chloro-2,4,8,18,22-pentaazatetracyclo[14.3.1.1(3,7).1(9,13)]docosa-1(20),3(22),4,6,9(21),10,12,16,18-nonaen-12-yl]-N′-{(3S)-1-[(5-methylisoxazol-4-yl)carbonyl]pyrrolidin-3-yl}urea bis(trifluoroacetate)]
- IC50 ([1]; Table B1): 17 nM
- IC50 ([2]; Table B1): 601 nM
- IC50 ([3]; Table B1): 25 nM
- ALK % of inhibition at a concentration of 500 nM or 1 mM [4, 7]: 22%

SMILES: O=C(Nc1ccc2cc1CCc1cncc(c1)Nc1ncc(Cl)c(n1)N2)N1CCN(c2ncc(C(F)(F)F)cc2Cl)CC1 [Example B302, N-[6-Chloro-2,4,8,18,22-pentaazatetracyclo[14.3.1.1(3,7).1(9,13)]docosa-1(20),3(22),4,6,9(21),10,12,16,18-nonaen-12-yl]-4-[3-chloro-5-(trifluoromethyl)pyridin-2-yl]piperazine-1-carboxamide tris(trifluoroacetate)]
- IC50 ([1]; Table B1): 119 nM
- IC50 ([2]; Table B1): > 400 nM
- IC50 ([5]; Table B1): > 400 nM
- ALK % of inhibition at a concentration of 500 nM or 1 mM ([4]; percentage inhibition of the example compound at a concentration of 500 nM or 1 mM (not specified which)): 69%

SMILES: Cc1noc(C)c1NC(=O)N1CCC(CC(=O)Nc2ccc3cc2CCc2cncc(c2)Nc2ncc(Cl)c(n2)N3)CC1 [Example A19, bis(trifluoroacetate)]
- IC50 [1, 11]: 17 nM
- IC50 [2, 8]: 54 nM
- IC50 [5, 9]: > 100 nM
- ALK % of inhibition at a concentration of 500 nM or 1 mM ([4]; compound at 500 nM or 1 mM, 90 μM ATP, bis(trifluoroacetate)): 17%

SMILES: CC(C)(C)OC(=O)N1CCC(NC(=O)Nc2ccc3cc2CCc2cccc(c2)Nc2ncc(Cl)c(n2)N3)CC1 [Example B180, tert-Butyl 4-[({[6-chloro-2,4,8,22-tetraazatetracyclo[14.3.1.1(3,7).1(9,13)]docosa-1(20),3(22),4,6,9(21),10,12,16,18-nonaen-12-yl]amino}carbonyl)amino]piperidine-1-carboxylate]
- IC50 ([1]; Table B1): 91 nM
- IC50 ([2]; Table B1): 97 nM
- IC50 ([3]; Table B1): 450 nM
- ALK % of inhibition at a concentration of 500 nM or 1 mM [4, 7]: 3.5%

SMILES: CC(C)(C)OC(=O)N1CCN(C(=O)COc2ccc3cc2CCc2cccc(c2)Nc2ncc(Cl)c(n2)N3)CC1 [Example A17, tert-Butyl 4-({[6-chloro-2,4,8,22-tetraazatetracyclo[14.3.1.1(3,7).1(9,13)]docosa-1(20),3(22),4,6,9(21),10,12,16,18-nonaen-12-yl]oxy}acetyl)piperazine-1-carboxylate trifluoroacetate]
- IC50 [1, 11]: 85 nM
- IC50 [2, 8]: 87 nM
- IC50 [5, 9]: 217 nM
- ALK % of inhibition at a concentration of 500 nM or 1 mM [4, 10]: 7%

SMILES: Clc1nccc(N2CCN(Cc3cc4cc(c3)Nc3nc(ncc3Cl)Nc3cccc(c3)CC4)CC2)n1 [Example B218, 6-Chloro-11-{[4-(2-chloropyrimidin-4-yl)piperazin-1-yl]methyl}-2,4,8,22-tetraazatetracyclo[14.3.1.1(3,7).1(9,13)]docosa-1(20),3(22),4,6,9(21),10,12,16,18-nonaene tris(trifluoroacetate)]
- IC50 ([1]; Table B1): 164 nM
- IC50 ([2]; Table B1): 25 nM
- IC50 ([3]; Table B1): 900 nM
- IC50 [4, 6]: > 10000 nM

SMILES: Cc1ccc(C#N)c(N2CCC(CC(=O)Nc3ccc4cc3CCc3cncc(c3)Nc3ncc(Cl)c(n3)N4)CC2)n1 [Example A238, N-[6-Chloro-2,4,8,18,22-pentaazatetracyclo[14.3.1.1(3,7).1(9,13)]docosa-1(20),3(22),4,6,9(21),10,12,16,18-nonaen-12-yl]-2-[1-(3-cyano-6-methylpyridin-2-yl)piperidin-4-yl]acetamide tris(trifluoroacetate)]
- IC50 [1, 11]: 18 nM
- IC50 [2, 8]: 244 nM
- IC50 [5, 9]: > 400 nM
- ALK % of inhibition at a concentration of 500 nM or 1 mM [4, 10]: 15%

SMILES: Cn1ccnc1C(=O)N1CCC(CC(=O)Nc2ccc3cc2CCc2cncc(c2)Nc2ncc(Cl)c(n2)N3)CC1 [Example A164, N-[6-Chloro-2,4,8,18,22-pentaazatetracyclo[14.3.1.1(3,7).1(9,13)]docosa-1(20),3(22),4,6,9(21),10,12,16,18-nonaen-12-yl]-2-{1-[(1-methyl-1H-imidazol-2-yl)carbonyl]piperidin-4-yl}acetamide bis(trifluoroacetate)]
- IC50 [1, 11]: 5.3 nM
- IC50 [2, 8]: 175 nM
- ALK % of inhibition at a concentration of 500 nM or 1 mM [4, 10]: 14%

Results, then the compound that gave them:

- IC50 ([1]; Table D1): 144 nM
- IC50 ([2]; Table D1): 113 nM
- IC50 ([5]; Table D1): 325 nM
- IC50 ([4]; Table D1, 90 μM ATP): > 10000 nM
SMILES: Clc1cnc2nc1Nc1cccc(c1)NCc1cccc(c1)N2 [Example D16, 6-Chloro-2,4,8,14,22-pentaazatetracyclo[14.3.1.1(3,7).1(9,13)]docosa-1(20),3(22),4,6,9(21),10,12,16,18-nonaene bis(trifluoroacetate)]

- IC50 ([2]; Table D1): 4.9 nM
- IC50 ([5]; Table D1): 21 nM
- IC50 ([3]; Table D1): 23 nM
- IC50 ([4]; Table D1, 90 μM ATP): 1210 nM
SMILES: [O-][S+]1CCc2cccc(c2)Nc2ncc(Cl)c(n2)Nc2cccc1c2 (stereo not drawn) [Example D23, 6-Chloro-14-thia-2,4,8,23-tetraazatetracyclo[15.3.1.1(3,7).1(9,13)]tricosa-1(21),3(23),4,6,9(22),10,12,17,19-nonaene 14-oxide trifluoroacetate]

- IC50 ([1]; Table B1): 0.15 nM
- IC50 ([5]; Table B1): 2.4 nM
- IC50 ([3]; Table B1): 0.51 nM
- IC50 [4, 6]: 350 nM
SMILES: Cc1ccccc1S(=O)(=O)Nc1ccc2cc1CCc1cccc(c1)Nc1ncc(Cl)c(n1)N2 [Example B149, N-[6-Chloro-2,4,8,22-tetraazatetracyclo[14.3.1.1(3,7).1(9,13)]docosa-1(20), 3(22),4,6,9(21),10,12,16,18-nonaen-12-yl]-2-methylbenzenesulfonamide trifluoroacetate]

- IC50 [2]: 66 nM
- IC50 [5]: 242 nM
- IC50 [4]: > 1000 nM
SMILES: O=S1(=O)Cc2cccc(c2)Nc2nc(ncc2Cl)Nc2cccc(c2)N1 [Example C8, 6-Chloro-15-thia-2,4,8,16,23-pentaazatetracyclo[15.3.1.1(3,7).1(9,13)]tricosa-1(21),3(23),4,6,9(22),10,12,17,19-nonaene 15,15-dioxide trifluoroacetate]

- IC50 [2, 8]: > 200 nM
- IC50 [5, 9]: > 200 nM
- IC50 [3]: > 200 nM
- ALK % of inhibition at a concentration of 500 nM or 1 mM [4, 10]: 15%
SMILES: COc1cccc(S(=O)(=O)N2CCC(CC(=O)Nc3ccc4cc3CCc3cccc(c3)Nc3ncc(Cl)c(n3)N4)CC2)c1 [Example A206, N-[6-Chloro-2,4,8,22-tetraazatetracyclo[14.3.1.1(3,7).1(9,13)]docosa-1(20),3(22),4,6,9(21),10,12,16,18-nonaen-12-yl]-2-{1-[(3-methoxyphenyl)sulfonyl]piperidin-4-yl}acetamide trifluoroacetate]

- IC50 ([1]; Table B1): 4 nM
- IC50 ([2]; Table B1): 8.2 nM
- IC50 ([3]; Table B1): 9.6 nM
- ALK % of inhibition at a concentration of 500 nM or 1 mM [4, 7]: 21%
SMILES: CC(=O)NCCNC(=O)Nc1ccc2cc1CCc1cccc(c1)Nc1ncc(Cl)c(n1)N2 [Example B186, N-{2-[({[6-Chloro-2,4,8,22-tetraazatetracyclo[14.3.1.1(3,7).1(9,13)]docosa-1(20),3(22),4,6,9(21),10,12,16,18-nonaen-12-yl]amino}carbonyl)amino]ethyl}acetamide trifluoroacetate]

- IC50 ([1]; Table B1): 8 nM
- IC50 ([2]; Table B1): 8.4 nM
- IC50 ([3]; Table B1): 8.1 nM
- ALK % of inhibition at a concentration of 500 nM or 1 mM [4, 7]: 4.6%
SMILES: O=S(=O)(Nc1ccc2cc1CCc1cccc(c1)Nc1ncc(Cl)c(n1)N2)c1ccccc1C(F)(F)F [Example B164, N-[6-Chloro-2,4,8,22-tetraazatetracyclo[14.3.1.1(3,7).1(9,13)]docosa-1(20), 3(22),4,6,9(21),10,12,16,18-nonaen-12-yl]-2-(trifluoromethyl)benzenesulfonamide trifluoroacetate]

- IC50 ([1]; Table B1): 176 nM
- IC50 ([2]; Table B1): 125 nM
- IC50 ([3]; Table B1): 700 nM
- IC50 [4, 6]: > 10000 nM
SMILES: Cn1ccc(C(=O)Nc2cc3cc(c2)Nc2nc(ncc2Cl)Nc2cccc(c2)CC3)n1 [Example B207, N-[6-Chloro-2,4,8,22-tetraazatetracyclo[14.3.1.1(3,7).1(9,13)]docosa-1(20),3(22),4,6,9(21),10,12,16,18-nonaen-11-yl]-1-methyl-1H-pyrazole-3-carboxamide trifluoroacetate]
